Assay results taken from patent publication US7309701B2, “Pyridazinone derivatives as pharmaceuticals and pharmaceutical compositions containing them” (Sanofi-Aventis Deutschland GmbH, priority 2002, dated 2007).

Assays:
[1] = test system: Tau protein; assay: Tau-phosphorylation: inhibition of phosphorylation of the Tau protein in adult rat cortex sections; type: cell-based; settings: inhibition of Tau phosphorylation (Ser396/404, antibody AD2), 2 h incubation at 37° C.
Description: The compounds' activities were determined by measuring the inhibition of phosphorylation of the Tau protein in adult rat cortex sections. The cortex sections having a thickness of 300 μm were prepared from 8-10-week old male OFA rats (Iffa-Credo), sacrificed by decapitation. They were incubated in 5 ml of DMEM medium containing pyruvate and glucose 4.5 g/l at 37° C. for 40 min. The sections were then washed twice with the medium, distributed into microtubes (50 μl in 500 μl of medium with or without test compounds), and incubated at 37° C., with stirring. Two hours later, the experiment was stopped by centrifugation. The sections were washed, sonicated and centrifuged at 18300 g, for 15 min at 4° C. The concentration of proteins in supernatant was determined by a commercial assay (BCA Protein Assay, Pierce) based on the Lowry method. The samples, denatured beforehand for 10 min at 70° C., were separated on a 4-12% Bis-Tris vertical gel in the presence of MOPS-SDS buffer and electrotransferred onto nitrocellulose membrane. Immunolabeling was performed with their monoclonal antibody AD2 which specifically recognizes the phosphorylated epitopes Ser396/404 of the Tau protein. The immunoactive proteins were visualized by adding a second antibody directed against the mouse IgG's and coupled to peroxidase and a chemiluminescent substrate. The autoradiograms obtained were finally quantified using the ‘GeneTools’ software from Syngene (GeneGnome, Ozyme) in order to determine an IC50.

[2] = target: human recombinant GSK-3β (Homo sapiens, UniProt P49841); assay: GSK-3β activity, AlphaScreen with primed glycogen synthase substrate peptide; type: biochemical; settings: human recombinant GSK-3β, 10 μM ATP, 60 min at room temperature, AlphaScreen; read-out: IC50
Chain of human recombinant GSK-3β (P49841 whole entry): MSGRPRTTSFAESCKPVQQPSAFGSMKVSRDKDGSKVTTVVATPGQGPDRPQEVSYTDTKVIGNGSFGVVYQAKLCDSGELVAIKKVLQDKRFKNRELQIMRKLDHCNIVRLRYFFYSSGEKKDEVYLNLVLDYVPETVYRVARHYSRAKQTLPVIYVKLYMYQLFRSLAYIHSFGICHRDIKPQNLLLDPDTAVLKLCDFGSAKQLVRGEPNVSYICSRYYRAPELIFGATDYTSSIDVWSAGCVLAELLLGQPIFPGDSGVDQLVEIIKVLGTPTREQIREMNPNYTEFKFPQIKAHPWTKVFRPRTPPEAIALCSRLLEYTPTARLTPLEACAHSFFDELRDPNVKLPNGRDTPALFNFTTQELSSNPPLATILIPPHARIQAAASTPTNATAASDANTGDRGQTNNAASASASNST
Description: GSK-β activity was measured using human recombinant GSK-3β and a primed (pre-phosphorylated) substrate peptide (derived from glycogen synthase and containing the phosphorylation sites 3a, b, and c) on basis of the AlphaScreen technology in 384-well plate format (small volume plate, white, GREINER).

| IC50 [1] | melting point | IC50 [2] | SMILES |
| --- | --- | --- | --- |
| 9000 nM | 254 °C |  | O=C(NCc1ccncc1)c1cc(-c2ccncc2)n[nH]c1=O [Example 8, 3-oxo-6-pyridin-4-yl-N-(pyridin-4-ylmethyl)-2,3-dihydropyridazine-4-carboxamide] |
| 22000 nM | 233 °C | 720 nM | O=C(NCc1ccc(Cl)cc1Cl)c1cc(-c2ccncc2)n[nH]c1=O [Example 2, N-(2,4-dichlorobenzyl)-3-oxo-6-pyridin-4-yl-2,3-dihydropyridazine-4-carboxamide] |
|  | 252 °C | 251 nM | O=C(NCc1ccc(N2CCOCC2)cc1)c1cc(-c2ccncc2)n[nH]c1=O [Example 17, N-(4-morpholin-4-ylbenzyl)-3-oxo-6-pyridin-4-yl-2,3-dihydropyridazine-4-carboxamide] |
| 9500 nM | 227 °C |  | O=C(NCc1ccc(C(F)(F)F)cc1)c1cc(-c2ccncc2)n[nH]c1=O [Example 10, 3-oxo-6-pyridin-4-yl-N-[4-(trifluoromethyl)benzyl]-2,3-dihydropyridazine-4-carboxamide] |
| 19000 nM |  | > 10000 nM | Cc1cc(-c2cc(C(=O)NCc3ccc(Cl)cc3)c(=O)[nH]n2)cc(C)c1O [Example 52, 6-(4-Hydroxy-3,5-dimethyl-phenyl)-3-oxo-2,3-dihydro-pyridazine-4-carboxylic acid 4-chloro-benzylamide] |
| 2200 nM |  |  | O=C(NCc1ccc(Cl)cc1)c1cc(Cl)n[nH]c1=O [Example 43, 6-Chloro-3-oxo-2,3-dihydro-pyridazine-4-carboxylic acid 4-chloro-benzylamide] |
| 300 nM |  | 2800 nM | O=C(NCc1ccc(Cl)cc1)c1cc(-c2ccc(O)cc2)n[nH]c1=O [Example 40, 6-(4-Hydroxy-phenyl)-3-oxo-2,3-dihydro-pyridazine-4-carboxylic acid 4-chloro-benzylamide] |
|  | 242 °C |  | O=C(NCc1ccccn1)c1cc(-c2ccncc2)n[nH]c1=O [Example 15, 3-oxo-6-pyridin-4-yl-N-(pyridin-2-ylmethyl)-2,3-dihydropyridazine-4-carboxamide] |
|  | 258 °C |  | O=C(NCc1ccccc1)c1cc(-c2ccncc2)n[nH]c1=O [Example 3, N-benzyl-3-oxo-6-pyridin-4-yl-2,3-dihydropyridazine-4-carboxamide] |
| 1100 nM |  | 95 nM | O=C(NCCCc1ccccc1)c1cc(-c2ccncc2)n[nH]c1=O [Example 66, 3-Oxo-6-pyridin-4-yl-2,3-dihydro-pyridazine-4-carboxylic acid (3-phenyl-propyl)-amide; compoundwith trifluoro-aceticacid] |
|  | ~ 258 °C |  | O=C(NCc1ccc(Cl)cc1Cl)c1cc(-c2ccccc2)n[nH]c1=O [Example 1, N-(2,4-dichlorobenzyl)-3-oxo-6-phenyl-4-yl-2,3-dihydropyridazine-4-carboxamide] |
| 3500 nM | 265 °C |  | O=C(NCc1ccc(Cl)c(Cl)c1)c1cc(-c2ccncc2)n[nH]c1=O [Example 16, N-(3,4-dichlorobenzyl)-3-oxo-6-pyridin-4-yl-2,3-dihydropyridazine-4-carboxamide] |
|  | 180 °C |  | CCOC(=O)CCNC(=O)c1cc(-c2ccncc2)n[nH]c1=O [Example 13, Ethyl 3-[(3-oxo-6-pyridin-4-yl-2,3-dihydropyridazine-4-carbonyl)amino]propionate] |
| 19000 nM |  | 4400 nM | O=C(NCc1ccc(Cl)cc1)c1cc(-c2cccc(O)c2)n[nH]c1=O [Example 53] |
|  | 262 °C | 97 nM | O=C(NCc1cccnc1)c1cc(-c2ccncc2)n[nH]c1=O [Example 14, 3-oxo-6-pyridin-4-yl-N-(pyridin-3-ylmethyl)-2,3-dihydropyridazine-4-carboxamide] |
| 13000 nM | 250 °C | 180 nM | O=C(NCc1ccc(Cl)cc1)c1cc(-c2ccncc2)n[nH]c1=O [Example 4, N-(4-chlorobenzyl)-3-oxo-6-pyridin-4-yl-2,3-dihydropyridazine-4-carboxamide] |
|  |  | 24 nM | C[C@@H](Nc1nccc(-c2cc(C(=O)NCCCc3ccccc3)c(=O)[nH]n2)n1)c1ccccc1 [Example 215, R-3-Oxo-6-[2-(1-phenyl-ethylamino)-pyrimidin-4-yl]-2,3-dihydro-pyridazine-4-carboxylic acid(3-phenyl-propyl)-amide] |
|  | 224 °C |  | O=C(NCc1cccc(C(F)(F)F)c1)c1cc(-c2ccncc2)n[nH]c1=O [Example 9, 3-oxo-6-pyridin-4-yl-N-[3-(trifluoromethyl)benzyl]-2,3-dihydropyridazine-4-carboxamide] |
|  |  | 29 nM | CCCCNc1nccc(-c2cc(C(=O)NCc3cccnc3)c(=O)[nH]n2)n1 [Example 219, 6-(2-Butylamino-pyrimidin-4-yl)-3-oxo-2,3-dihydro-pyridazine-4-carboxylic acid(pyridin-3-ylmethyl)-amide] |
|  |  | 22 nM | CCCCNc1nccc(-c2cc(C(=O)NCCCN3CCN(C)CC3)c(=O)[nH]n2)n1 [Example 218, 6-(2-Butylamino-pyrimidin-4-yl)-3-oxo-2,3-dihydro-pyridazine-4-carboxylic acid [3-(4-methyl-piperazin-1-yl)-propyl]-amide;compound withtrifluoro-acetic acid] |
|  |  | 5 nM | Cc1cc(-c2cc(C(=O)NCc3ccc(C(=O)O)cc3)c(=O)[nH]n2)cc(C)c1O [Example 32, 4-({[6-(4-Hydroxy-3,5-dimethyl-phenyl)-3-oxo-2,3-dihydro-pyridazine-4-carbonyl]-amino}-methyl)-benzoic acid] |
|  |  | 227 nM | O=C(NCc1ccc(Cl)cc1)c1cc(-c2ccc(O)c(Cl)c2)n[nH]c1=O [Example 180, 6-(3-Chloro-4-hydroxy-phenyl)-3-oxo-2,3-dihydro-pyridazine-4-carboxylic acid 4-chloro-benzylamide] |
|  |  | 36 nM | Cc1cc(-c2cc(C(=O)NCCCc3cccnc3)c(=O)[nH]n2)cc(C)c1O [Example 48, 6-(4-Hydroxy-3,5-dimethyl-phenyl)-3-oxo-2,3-dihydro-pyridazine-4-carboxylic acid (3-pyridin-3-yl-propyl)-amide] |
|  |  | 380 nM | O=C(NCc1ccc(Br)cc1)c1cc(-c2ccncc2)n[nH]c1=O [Example 75, 3-Oxo-6-pyridin-4-yl-2,3-dihydro-pyridazine-4-carboxylic acid 4-bromo-benzylamide;compound withtrifluoro-acetic acid] |
| 22000 nM |  |  | O=C(NCc1ccc(Cl)cc1Cl)c1cc(-c2ccc(O)cc2)n[nH]c1=O [Example 22, N-(2,4-Dichlorbenzyl)-3-oxo-6-[4-(hydroxy)phenyl]-2,3-dihydropyridazine-4-carboxylic acid] |
| 240 nM |  |  | CNc1nccc(-c2cc(C(=O)NCc3ccc(Cl)cc3)c(=O)[nH]n2)n1 [Example 34, 6-(2-Methylamino-pyrimidin-4-yl)-3-oxo-2,3-dihydro-pyridazine-4-carboxylic acid 4-chloro-benzylamide] |
|  |  | 2300 nM | COc1cc(-c2cc(C(=O)NCc3ccc(Cl)cc3)c(=O)[nH]n2)ccc1O [Example 41, 6-(4-Hydroxy-3-methoxy-phenyl)-3-oxo-2,3-dihydro-pyridazine-4-carboxylic acid 4-chloro-benzylamide] |
|  | 209 °C |  | CCCCNC(=O)c1cc(-c2ccncc2)n[nH]c1=O [Example 12, 3-oxo-6-pyridin-4-yl-N-(n-butyl)-2,3-dihydropyridazine-4-carboxamide] |
|  | 202 °C |  | O=C(NCCc1ccc(Cl)cc1Cl)c1cc(-c2ccncc2)n[nH]c1=O [Example 6, N-[2-(2,4-dichlorophenyl)ethyl]-3-oxo-6-pyridin-4-yl-2,3-dihydropyridazine-4-carboxamide] |

| SMILES | IC50 [1] | melting point | IC50 [2] |
| --- | --- | --- | --- |
| O=C(NCc1ccccc1)c1cc(-c2ccc(O)cc2)n[nH]c1=O [Example 19, N-benzyl-3-oxo-6-[4-(hydroxy)phenyl]-2,3-dihydropyridazine-4-carboxamide] | 4100 nM |  |  |
